Experimental data taken from ChEMBL document CHEMBL1201862, “PubChem BioAssay data set” (2004).
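96-well plates; 48 h exposure; 5 concentrations. Endpoints by linear interpolation between flanking doses. Not reached: highest tested concentration assigned. GI50 is the concentration that inhibits growth by half.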 Calls of active or inactive are those of the source. No stated cut-off is given here; in the data, active = GI50 up to about 1.1 µM and inactive = higher.

Tests used:
Experiment in all cases: growth of human tumour cells (NCI), 48 h
[1] = tested on: HOP-62
[2] = tested on: NCI-H226
[3] = tested on: HCC 2998
[4] = tested on: M14
[5] = tested on: RXF 393
[6] = tested on: NCI/ADR-RES
[7] = tested on: SK-MEL-2
[8] = tested on: CAKI-1
[9] = tested on: T47D
[10] = tested on: IGROV-1
[11] = tested on: SW-620
[12] = tested on: HCT-15
[13] = tested on: UACC-62
[14] = tested on: PC-3
[15] = tested on: MDA-MB-435
[16] = tested on: TK-10
[17] = tested on: HL-60
[18] = tested on: UO-31
[19] = tested on: SNB-19

| Compound | GI50 [1] | GI50 [2] | GI50 [3] | GI50 [4] | GI50 [5] | GI50 [6] | GI50 [7] | GI50 [8] | GI50 [9] | GI50 [10] | GI50 [11] | GI50 [12] [µM] | GI50 [13] | GI50 [14] | GI50 [15] | GI50 [16] | GI50 [17] | GI50 [18] | GI50 [19] |
| --- | --- | --- | --- | --- | --- | --- | --- | --- | --- | --- | --- | --- | --- | --- | --- | --- | --- | --- | --- |
| COc1cccc2c1NC(=O)Cc1c-2[nH]c2ccccc12 | > 100 µM (inactive) | > 100 µM (inactive) | > 100 µM (inactive) | > 100 µM (inactive) | > 100 µM (inactive) | 82.2 µM (inactive) | > 100 µM (inactive) | > 100 µM (inactive) | 40.6 µM (inactive) | > 100 µM (inactive) | > 100 µM (inactive) | 73.8 | > 100 µM (inactive) | > 100 µM (inactive) | 29.1 µM (inactive) | > 100 µM (inactive) | > 100 µM (inactive) | > 100 µM (inactive) | – |
| CN(C)NC(=S)Nc1ccccc1Br | – | > 100 µM (inactive) | – | > 100 µM (inactive) | > 100 µM (inactive) | > 100 µM (inactive) | > 100 µM (inactive) | > 100 µM (inactive) | > 100 µM (inactive) | > 100 µM (inactive) | > 100 µM (inactive) | > 100 | > 100 µM (inactive) | > 100 µM (inactive) | > 100 µM (inactive) | > 100 µM (inactive) | > 100 µM (inactive) | > 100 µM (inactive) | > 100 µM (inactive) |
| BrCc1ccc(CBr)c2c1-c1c(CBr)ccc3ccc(CBr)c-2c13 | > 100 µM (inactive) | > 100 µM (inactive) | > 100 µM (inactive) | > 100 µM (inactive) | – | > 100 µM (inactive) | > 100 µM (inactive) | – | > 100 µM (inactive) | > 100 µM (inactive) | > 100 µM (inactive) | > 100 | > 100 µM (inactive) | 36.6 µM (inactive) | > 100 µM (inactive) | > 100 µM (inactive) | 40.6 µM (inactive) | > 100 µM (inactive) | > 100 µM (inactive) |
| O=C1NC(N2CCOCC2)=N/C1=C\c1ccccc1O | > 100 µM (inactive) | > 100 µM (inactive) | – | > 100 µM (inactive) | > 100 µM (inactive) | > 100 µM (inactive) | > 100 µM (inactive) | > 100 µM (inactive) | > 100 µM (inactive) | > 100 µM (inactive) | > 100 µM (inactive) | > 100 | – | > 100 µM (inactive) | > 100 µM (inactive) | > 100 µM (inactive) | 58.1 µM (inactive) | > 100 µM (inactive) | > 100 µM (inactive) |
| CCOC1Oc2ccccc2-c2nc(N)ncc21 (stereo unspecified) | – | 61.9 µM (inactive) | – | 56.8 µM (inactive) | 37.7 µM (inactive) | 39.7 µM (inactive) | > 100 µM (inactive) | 30.6 µM (inactive) | 51.3 µM (inactive) | 43.6 µM (inactive) | 46.3 µM (inactive) | 14 | 29.1 µM (inactive) | 41.5 µM (inactive) | 21.7 µM (inactive) | 33.2 µM (inactive) | 20.8 µM (inactive) | 43.5 µM (inactive) | > 100 µM (inactive) |
| O=C1NC(c2c(Cl)cccc2Cl)Nc2ccccc21 (stereo unspecified) | 81.7 µM (inactive) | 40.2 µM (inactive) | – | 34.8 µM (inactive) | 70 µM (inactive) | 21.8 µM (inactive) | 82.2 µM (inactive) | 18.5 µM (inactive) | > 100 µM (inactive) | 21.2 µM (inactive) | 30.5 µM (inactive) | 49.7 | 37 µM (inactive) | 71.1 µM (inactive) | 14.1 µM (inactive) | > 100 µM (inactive) | 18 µM (inactive) | > 100 µM (inactive) | 71.3 µM (inactive) |
| CCN(CC)CCn1ncc2c3c(=O)c4cccnc4n(CCN(CC)CC)c3ccc21 | > 10 µM (inactive) | > 10 µM (inactive) | > 10 µM (inactive) | > 10 µM (inactive) | > 10 µM (inactive) | 9.18 µM (inactive) | > 10 µM (inactive) | > 10 µM (inactive) | > 10 µM (inactive) | > 10 µM (inactive) | 3.77 µM (inactive) | 5.25 | > 10 µM (inactive) | > 10 µM (inactive) | 6.21 µM (inactive) | > 10 µM (inactive) | 8.2 µM (inactive) | – | > 10 µM (inactive) |
| CCNCCCNc1c2ccccc2nc2ccccc12 | 0.402 µM (active) | – | 0.239 µM (active) | 0.318 µM (active) | 0.568 µM (active) | 0.916 µM (active) | 0.518 µM (active) | 0.334 µM (active) | 0.502 µM (active) | 0.48 µM (active) | 0.278 µM (active) | 0.366 | 0.387 µM (active) | 0.245 µM (active) | 0.479 µM (active) | 0.571 µM (active) | 0.493 µM (active) | 0.334 µM (active) | 0.499 µM (active) |
| Oc1ccc(CCc2cc(O)cc(O)c2)cc1 [DIHYDRORESVERATROL] | > 100 µM (inactive) | 53.5 µM (inactive) | – | > 100 µM (inactive) | > 100 µM (inactive) | > 100 µM (inactive) | > 100 µM (inactive) | > 100 µM (inactive) | > 100 µM (inactive) | > 100 µM (inactive) | > 100 µM (inactive) | 22.7 | 47.1 µM (inactive) | > 100 µM (inactive) | > 100 µM (inactive) | > 100 µM (inactive) | 50.4 µM (inactive) | > 100 µM (inactive) | > 100 µM (inactive) |
| Clc1nc(Cl)c(CBr)c(Cl)n1 | 5.04 µM (inactive) | 8.45 µM (inactive) | 10.8 µM (inactive) | 2.91 µM (inactive) | 6.85 µM (inactive) | 4.29 µM (inactive) | 8.65 µM (inactive) | 10.9 µM (inactive) | 13.5 µM (inactive) | 4.41 µM (inactive) | 1.89 µM (inactive) | 2.65 | 5.08 µM (inactive) | 6.19 µM (inactive) | 5.05 µM (inactive) | 4.7 µM (inactive) | – | 3.33 µM (inactive) | 16 µM (inactive) |
| CC(=O)CCC1(C(=O)OCC(C)C)CCCC1=O (stereo unspecified) | > 100 µM (inactive) | > 100 µM (inactive) | – | > 100 µM (inactive) | > 100 µM (inactive) | > 100 µM (inactive) | > 100 µM (inactive) | > 100 µM (inactive) | > 100 µM (inactive) | > 100 µM (inactive) | > 100 µM (inactive) | > 100 | > 100 µM (inactive) | > 100 µM (inactive) | > 100 µM (inactive) | > 100 µM (inactive) | > 100 µM (inactive) | > 100 µM (inactive) | > 100 µM (inactive) |
| CC(=O)OCC1OC(n2c(-c3ccccc3)c(/N=N/c3ccccc3)c(C)c(C#N)c2=S)C(OC(C)=O)C(OC(C)=O)C1OC(C)=O (stereo unspecified) | > 100 µM (inactive) | – | > 100 µM (inactive) | > 100 µM (inactive) | > 100 µM (inactive) | > 100 µM (inactive) | > 100 µM (inactive) | > 100 µM (inactive) | > 100 µM (inactive) | > 100 µM (inactive) | > 100 µM (inactive) | > 100 | > 100 µM (inactive) | > 100 µM (inactive) | > 100 µM (inactive) | > 100 µM (inactive) | > 100 µM (inactive) | > 100 µM (inactive) | > 100 µM (inactive) |
| Cc1cc(Cl)ccc1NC(=O)/C(Cl)=C(/Cl)C(=O)O | 22.2 µM (inactive) | – | 17.9 µM (inactive) | 28.4 µM (inactive) | 19.6 µM (inactive) | 29 µM (inactive) | – | 18.3 µM (inactive) | 22.8 µM (inactive) | – | 21 µM (inactive) | 18.7 | 21.5 µM (inactive) | 21.4 µM (inactive) | 20.6 µM (inactive) | 17.5 µM (inactive) | 25.7 µM (inactive) | > 100 µM (inactive) | > 100 µM (inactive) |
| Cc1ccc2c(=O)c(C(=O)NNC(=S)NC3CCCCC3)c[nH]c2n1 | 68.1 µM (inactive) | 23.9 µM (inactive) | – | 53.2 µM (inactive) | > 100 µM (inactive) | > 100 µM (inactive) | 65.9 µM (inactive) | 59.2 µM (inactive) | 46.9 µM (inactive) | 35.6 µM (inactive) | 40.6 µM (inactive) | > 100 | 62.4 µM (inactive) | 45.4 µM (inactive) | 30.1 µM (inactive) | > 100 µM (inactive) | 46.9 µM (inactive) | > 100 µM (inactive) | > 100 µM (inactive) |
| FC(F)(Sc1ncc[nH]1)c1nc2ccccc2o1 | > 100 µM (inactive) | > 100 µM (inactive) | > 100 µM (inactive) | > 100 µM (inactive) | > 100 µM (inactive) | > 100 µM (inactive) | > 100 µM (inactive) | > 100 µM (inactive) | > 100 µM (inactive) | > 100 µM (inactive) | > 100 µM (inactive) | > 100 | > 100 µM (inactive) | > 100 µM (inactive) | > 100 µM (inactive) | > 100 µM (inactive) | – | > 100 µM (inactive) | – |
| CC(NP(=O)(c1ccccc1)c1ccccc1)c1ccccc1 (stereo unspecified) | > 100 µM (inactive) | > 100 µM (inactive) | > 100 µM (inactive) | > 100 µM (inactive) | > 100 µM (inactive) | > 100 µM (inactive) | – | > 100 µM (inactive) | > 100 µM (inactive) | > 100 µM (inactive) | > 100 µM (inactive) | > 100 | > 100 µM (inactive) | > 100 µM (inactive) | > 100 µM (inactive) | > 100 µM (inactive) | > 100 µM (inactive) | > 100 µM (inactive) | > 100 µM (inactive) |
